In one experiment the test system is gelatinase B (MMP-9). As to the kind of experiment: Gelatin zymography of conditioned media of TSU PR1 and MAT LyLu cells, MMP-9. Particulars: 48 hours, serum-free medium. The format is cell-based. As for the experimental part:
Next we examined whether CMT-3 and doxycycline differentially affect the production of two major classes of gelatinases: gelatinase A (MMP-2) and gelatinase B (MMP-9). Confluent cultures of TSU PR1 and MAT LyLu cells were incubated with various concentrations of doxycycline and CMT-3 for 48 hours in serum-free medium. The conditioned media were then analyzed for MMPs by zymography as described below.
Conditioned media were collected from the cultures that had been treated with doxycycline or CMT-3 for 2 days. Media were then incubated with SDS-gel electrophoresis sample buffer for 30 min at room temperature, and then analyzed by gel electrophoresis on SDS-polyacrylamide gel (8%) containing gelatin (1 mg/mL). Following electrophoresis, the gels were washed twice with 0.25% TRITON® X100 for 30 min each, and incubated for 18 hr at 37° C. in an MMP digestion buffer comprising 20 mM Tris-HCl, pH 7.4, containing 30 mM NaCl, 1 mM PMSF, 10 mM CaCl2, 2 μM ZnSO4, 0.005% Brij35, and 0.02 NaN3 (Lokeshwar 1993a). After incubation, the gels were briefly rinsed in distilled water and stained with 0.25% Coomassie brilliant blue R250 prepared in 40% isopropanol solution for 1 hr. Gels were destained with 7% acetic acid. the locations of MMPs in the gels were visible as clear areas on a blue background, indicative of digested gelatin.

A further experiment has as its system MAT LyLu. As to the kind of experiment: Cytotoxicity GI50 (MTT and thymidine incorporation), MAT LyLu. The format is cell-based. To be noted: Rattus norvegicus. The method, then: To confirm this observation, we compared the cytotoxicities of CMT-3 and doxycycline for a panel of common human prostate cancer cell lines. Cytotoxicity was measured using the MTT assay (see above) and a cellular thymidine incorporation assay as described by Lokeshwar et al. (1995a). The 50% growth inhibition (GI50) values obtained using both assays were identical. As shown in the data summarized in Table 3, below, CMT-3 was two- to eight-fold more cytotoxic than doxycycline.
Growth inhibition was calculated from linear regression of the dose-response curves generated for each experiment using log(dose) vs. cell proliferation (% of control). Correlation coefficient (r) was always ≧0.95 (negative). Results are presented as Mean±SEM of at least three GI50 values calculated from each experiment.

The test system of a further experiment is Dunning MAT LyLu cells. As to the kind of experiment: Matrigel invasion assay (Boyden chamber, MTT), MAT LyLu. The format is cell-based, rat. As for the experimental part:
In this method, 4×10^5 tumor cells were plated on the top chamber of the Boyden chemotaxis assay chambers (Costar Transwell plates). The bottom side of the chamber was a 12 μm-pore polycarbonate filter layered with 0.5 mm thick layer of Matrigel. The bottom well contained a chemoattractant, a serum-free culture-conditioned medium from FHS 733 cells, a line of human fetal lung fibroblasts (ATCC No. HTB-157). Cancer cells (4×10^5) were plated in the top wells of the plates. Doxycycline or CMTs were diluted in a serum-free medium to 5 μg/mL, and were added to both top and bottom chambers. […] After 48 hr incubation, MTT was added to both the top and bottom wells (0.5 mg/mL), and incubation was continued for 4 hr. Wells were then emptied, and the cells from the undersides of the filter were pooled with those in the bottom wells with a filter tip. The reduced MTT (formazan) from top and bottom wells was solubilized with DMSO overnight, and absorbance (O.D.) at 515 nm was measured. The ratio of the O.D. from the bottom wells to that of the total (i.e., O.D. of top plus bottom wells) was taken as the invasive potential. […] The MTT assay procedure also normalizes the coincident inhibition due to the cytotoxic effects of the agents under investigation. Results presented are from three independent experiments.

A further experiment has as its system Dunning MAT LyLu tumor. Kind of experiment: MAT LyLu tumor growth and lung metastasis, gavage from day of implant. The format is in vivo, Copenhagen rats. As for the experimental part: Tumor Generation and Treatment: Dunning MAT LyLu cells were harvested from culture flasks, and a 0.5 mL suspension containing from 2×10^5 to 2×10^6 cells/mL was inoculated into the dorsal flank of adult Copenhagen rats (Harlan Sprague Dawley, Indianapolis, Ind.). The rats weighed 250-300 g, and were 90-100 days old. Tumors were detected by palpating the skin around the site of injection starting 3 days following implant of the tumor cells (Lokeshwar et al. 1995a).
Drug Treatment In Vivo: Doxycycline and CMT-3 were dissolved in a 2% aqueous solution of a soluble form of carboxymethyl cellulose (Sigma Cat. No. C-5678), and a fresh solution was made up daily. Rats were gavaged daily with 1 mL of the drug solution (concentrations specified below), or the vehicle (2% carboxymethyl cellulose). Tumor growth was recorded three times a week, and rats were weighed weekly. The effect of various treatments on tumor growth was monitored over time using calipers, and the volume approximated to an ellipsoid (i.e., volume=length×width×height×0.5236) (Lokeshwar et al. 1993b). Tumor growth rate was determined by regression analysis of tumor volume versus time, for each tumor-bearing rat. Mean tumor growth rate (time to reach a fixed volume) for each treatment group was then used to evaluate the statistical significance of treatment efficacy using the INSTAT statistical program (Ravitz Software, San Diego, Calif.). Rats were euthanized once the tumor volume reached ≧10 cm^3. At that time animals were necropsied, tumors and lungs were removed and fixed in Bouin's fixative. Macroscopic tumor foci on the lungs were counted under a dissecting microscope.
CMT-3 and doxycycline were tested for antitumor activity in vivo. In this series of experiments, daily gavage of drugs was started on the same day on which tumor cells were implanted in the test animals. Tumor growth was initiated by sub cutis injection of 1×10^6 tumor cells.

The test system of experiment [1] is C8161 human melanoma cells. Kind of experiment: In vitro invasion assay (MICS), laminin/collagen IV/gelatin matrix-coated filter. The format is cell-based. To be noted: 3, 20 and 50 μg/mL; for Percent Inhibition of invasive potential: 48 hr. As for the experimental part: The in vitro invasive potentials of the control (DMSO only) and chemically-modified tetracycline treated cells were measured using a modified Boyden chamber as previously described (Membrane Invasion Culture System, MICS). An intervening barrier consisting of a polycarbonate filter containing 10 μm pores (Osmonics, Livermore, Calif.) coated with a defined matrix of human laminin/collagen IV/gelatin (Sigma, St. Louis, Mo.) was used for these studies. […] Doxycycline or individual CMTs were then added to different wells of the chamber at 3, 20 or 50 μg/mL 2 hr post-seeding and daily during the assay. After 48 hr, the cells were removed from the lower wells and the number of invasive cells was determined and compared to the original number of cells seeded into the upper wells. Where appropriate, data were corrected for proliferation during the period of the in vitro assay.

Where [2] appears, read: 40 mg/kg daily oral gavage from day of implant.

These results are taken from patent US6429204B1, “Method of inhibiting cancer growth” (University of Miami, priority 1997, dated 2002).

Consider `NC(=O)C1=C(O)CC2CC3Cc4cccc(O)c4C(=O)C3=C(O)C2(O)C1=O` (stereo not shown) [CMT-3, 6-demethyl-6-deoxy-4-de(dimethylamino)tetracycline], for which the “MMP-9 levels in conditioned media (zymography)” value with gelatinase B (MMP-9) was “decreased MMP-2 and MMP-9 levels at a lower concentration than did doxycycline”. For the same molecule, it took 5.2 ± 1.9 µM to inhibit growth in the experiment with MAT LyLu by half (GI50). Besides, the “effect on invasive potential after pretreatment only” value in the experiment on Dunning MAT LyLu cells (48 hour pretreatment, no drug in the invasion chamber) is “only a moderate effect”. Moreover, the “inhibition of invasive/metastatic potential (Matrigel invasion)” value with Dunning MAT LyLu cells (MAT LyLu, 5 μg/mL, 48 hr) is “equally inhibited”. Moreover, the “primary tumor growth versus control group (regression analysis of tumor volumes)” value with Dunning MAT LyLu tumor (20 mg/kg or 40 mg/kg) is listed as “no significant difference”. Besides, the “reduction in MTF relative to the control group” value in the experiment on Dunning MAT LyLu tumor (40 mg/kg (10 mg/rat)) turned out to be 51%. The “metastatic tumor foci in lungs” value in the experiment with Dunning MAT LyLu tumor (setting [2]) is on record as 28.9±15.4 MTF/rat. Also, the “time from injection of cells to 3 cm^3 tumor” value with Dunning MAT LyLu tumor (control 13.57±2.12 days) was 14.0 ± 1.9 days. In the experiment on Dunning MAT LyLu tumor (oral gavage daily for 21 days following implant, controls 59.5±13.9), the “number of lung metastases” value came to 28.9±15.4 sites/animal. In experiment [1], the “Type of Inhibition” value is listed as “dose dependent” and the “Percent Inhibition of invasive potential” value is listed as 35-74%.

As to `C[C@H]1c2cccc(O)c2C(=O)C2=C(O)[C@]3(O)C(=O)C(C(N)=O)=C(O)[C@@H](N(C)C)[C@@H]3[C@@H](O)[C@@H]21` [Doxycycline, 6α-deoxy-5-hydroxy-tetracycline, reference compound], halving of growth in the experiment with MAT LyLu (GI50) required 20 ± 6.4 µM. Also, the inhibition at 5 µg/mL with Dunning MAT LyLu cells (Rattus norvegicus, MAT LyLu, 5 μg/mL, 48 hr, read-out: inhibition of invasive/metastatic potential (Matrigel invasion)) stood at 68 ± 4.2%. For the same molecule, the “metastatic tumor foci in lungs” value in the experiment on Dunning MAT LyLu tumor (20 mg/kg daily oral gavage from day of implant) is listed as 39.7±17.2 MTF/rat; with Dunning MAT LyLu tumor (setting [2]) it was 43.6±18.8 MTF/rat. In experiment [1], the “Percent Inhibition of invasive potential” value is listed as 12-79%.
